{"source": "patent US8410310B2", "about": "“Trypsin-like serine protease inhibitors, and their preparation and use” (The Medicines Company (Leipzig) GmbH, priority 2006, dated 2013)", "key": {"[1]": {"assay": "Terminal half-life in dogs", "conditions": "dog, in vivo"}, "[2]": {"assay": "Terminal half-life in rats", "conditions": "rat, in vivo"}, "plasmin [3]": {"molecular_target": "T1, plasmin (Homo sapiens, UniProt P00747)", "T1 sequence (P00747 581-810 limits assumed)": "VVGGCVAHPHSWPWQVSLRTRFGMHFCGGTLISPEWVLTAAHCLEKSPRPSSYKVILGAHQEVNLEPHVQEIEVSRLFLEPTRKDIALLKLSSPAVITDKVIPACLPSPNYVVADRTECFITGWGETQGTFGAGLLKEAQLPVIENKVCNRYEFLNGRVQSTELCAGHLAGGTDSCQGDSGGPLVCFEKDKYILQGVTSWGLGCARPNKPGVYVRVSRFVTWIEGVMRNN", "T1 sequence (P00747 97-580 partner limits assumed)": "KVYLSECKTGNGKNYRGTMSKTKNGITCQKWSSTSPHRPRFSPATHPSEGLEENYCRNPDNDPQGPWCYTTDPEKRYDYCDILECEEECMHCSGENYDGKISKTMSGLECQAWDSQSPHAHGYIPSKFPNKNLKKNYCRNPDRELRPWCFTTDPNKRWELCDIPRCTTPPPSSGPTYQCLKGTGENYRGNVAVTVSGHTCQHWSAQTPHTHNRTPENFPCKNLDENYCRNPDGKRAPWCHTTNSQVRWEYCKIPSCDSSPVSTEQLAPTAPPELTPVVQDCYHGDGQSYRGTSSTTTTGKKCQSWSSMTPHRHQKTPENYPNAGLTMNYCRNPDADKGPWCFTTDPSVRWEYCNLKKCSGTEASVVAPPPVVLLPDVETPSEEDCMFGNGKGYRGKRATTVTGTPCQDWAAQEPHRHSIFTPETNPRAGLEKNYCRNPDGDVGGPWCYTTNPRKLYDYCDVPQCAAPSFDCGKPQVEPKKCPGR", "assay": "Determination of inhibition constants for plasmin", "assay_type": "biochemical", "set-up": "purchased Calbiochem", "conditions": "25° C., substrate Chromozym PL, pH 8.0; read-out: Plasmin [Ki]", "summary_of_the_method": "(§1)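 Chromogenic assays measured absorbance at 405 nm: zero-order reactions were stopped with acetic acid after 20 min, and pseudo-first-order rates were recorded kinetically at equilibrium. Ki was obtained by Dixon linear regression or by fitting to the competitive-inhibition rate equation, averaging at least two determinations.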"}, "Xa": {"molecular_target": "Xa (Homo sapiens, UniProt P00742)", "sequence (P00742 235-488 limits assumed)": "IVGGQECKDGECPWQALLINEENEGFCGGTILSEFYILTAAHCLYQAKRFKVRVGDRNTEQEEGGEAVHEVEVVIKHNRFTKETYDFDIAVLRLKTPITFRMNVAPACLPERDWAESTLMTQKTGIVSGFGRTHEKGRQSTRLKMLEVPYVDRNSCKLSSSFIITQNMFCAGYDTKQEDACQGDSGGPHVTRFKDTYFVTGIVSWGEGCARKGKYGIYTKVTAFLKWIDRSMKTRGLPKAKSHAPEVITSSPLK", "sequence (P00742 41-179 limits assumed)": "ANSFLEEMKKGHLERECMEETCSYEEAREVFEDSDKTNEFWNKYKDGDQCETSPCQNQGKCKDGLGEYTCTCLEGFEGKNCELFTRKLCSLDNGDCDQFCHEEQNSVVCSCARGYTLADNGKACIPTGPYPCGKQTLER", "assay": "Determination of inhibition constants for Xa", "assay_type": "biochemical", "summary_of_the_method": "as §1"}, "[4]": {"molecular_target": "T2, Human factor XIIa (alpha) (Homo sapiens, UniProt P00748)", "T2 construct": "Human factor Xa, factor XIa, factor XIIa, thrombin, and plasma kallikrein were purchased; purchased Enzyme Research Laboratories (via Haemochrom, Essen)", "T2 sequence (P00748 373-615 limits assumed)": "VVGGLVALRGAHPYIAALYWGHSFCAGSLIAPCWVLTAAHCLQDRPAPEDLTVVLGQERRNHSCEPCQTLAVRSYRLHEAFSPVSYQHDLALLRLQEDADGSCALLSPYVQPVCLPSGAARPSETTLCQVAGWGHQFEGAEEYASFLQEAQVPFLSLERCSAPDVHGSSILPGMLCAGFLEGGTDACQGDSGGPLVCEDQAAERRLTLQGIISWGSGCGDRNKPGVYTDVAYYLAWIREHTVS", "T2 sequence (P00748 20-372 partner limits assumed)": "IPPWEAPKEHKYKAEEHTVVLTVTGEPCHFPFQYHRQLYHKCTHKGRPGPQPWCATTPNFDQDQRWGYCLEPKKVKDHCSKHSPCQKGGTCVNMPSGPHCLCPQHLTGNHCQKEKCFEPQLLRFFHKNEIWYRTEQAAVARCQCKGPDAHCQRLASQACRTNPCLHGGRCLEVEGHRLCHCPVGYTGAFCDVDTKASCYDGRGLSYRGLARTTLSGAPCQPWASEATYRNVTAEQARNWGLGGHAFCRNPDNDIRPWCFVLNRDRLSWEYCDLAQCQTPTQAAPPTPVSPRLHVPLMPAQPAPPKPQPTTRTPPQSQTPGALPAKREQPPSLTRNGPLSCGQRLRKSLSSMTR", "assay": "Inhibition constants against purified human serine proteases: FXIIa", "assay_type": "biochemical", "conditions": "50 mM Tris-HCl pH 8.0, 154 mM NaCl, Chromozym XII", "description": "(§2) Aprotinin and tranexamic acid were purchased from SIGMA (Schnelldorf, Germany). Human factor Xa, factor XIa, factor XIIa, thrombin, and plasma kallikrein were purchased from Enzyme Research Laboratories, and human plasmin from Chromogenix (both via Haemochrom, Essen, Germany). Various synthetic peptide chromogenic substrates used for determination of inhibition constants were obtained from Pentapharm (Basel, Switzerland), Roche (Mannheim, Germany), and Chromogenix: Chromozyme PL for plasmin, S2302 for plasma kallikrein, Pefachrome FXa for factor Xa, Chromozym XII for FXIIa, Pefachrom tPA for thrombin, and Pefachrome PCa for factor XIa. […]\n(§3) Inhibition of purified human serine proteases by Compound No. 3 and aprotinin was studied using the established methods described herein in Example 3 (i.e., Stürzebecher et al., 1997). […] Steady-state velocities of substrate conversion were obtained from progress curves generated by continuous monitoring of the absorbance at 405 nm with a microplate reader (Multiskan Ascent, Thermo Electron Corporation, Dreieich, Germany). […] Inhibition constants (Ki) were calculated from non-linear fits of individual data sets to the Michaelis-Menten equation for competitive inhibitors using an enzyme kinetic analysis software (SIGMA Plot® 9.0 Enzyme Kinetics Module, SSI, San Jose, Calif.). […]"}, "plasma kallikrein": {"molecular_target": "plasma kallikrein (Homo sapiens, UniProt P03952)", "sequence (P03952 391-638 limits assumed)": "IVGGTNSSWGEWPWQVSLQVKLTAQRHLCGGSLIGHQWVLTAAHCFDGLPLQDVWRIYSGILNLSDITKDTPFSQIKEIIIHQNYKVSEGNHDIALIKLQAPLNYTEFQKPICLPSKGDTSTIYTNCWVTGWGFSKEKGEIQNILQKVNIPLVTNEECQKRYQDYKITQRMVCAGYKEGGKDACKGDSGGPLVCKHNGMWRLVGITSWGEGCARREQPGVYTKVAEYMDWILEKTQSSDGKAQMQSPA", "sequence (P03952 20-390 partner limits assumed)": "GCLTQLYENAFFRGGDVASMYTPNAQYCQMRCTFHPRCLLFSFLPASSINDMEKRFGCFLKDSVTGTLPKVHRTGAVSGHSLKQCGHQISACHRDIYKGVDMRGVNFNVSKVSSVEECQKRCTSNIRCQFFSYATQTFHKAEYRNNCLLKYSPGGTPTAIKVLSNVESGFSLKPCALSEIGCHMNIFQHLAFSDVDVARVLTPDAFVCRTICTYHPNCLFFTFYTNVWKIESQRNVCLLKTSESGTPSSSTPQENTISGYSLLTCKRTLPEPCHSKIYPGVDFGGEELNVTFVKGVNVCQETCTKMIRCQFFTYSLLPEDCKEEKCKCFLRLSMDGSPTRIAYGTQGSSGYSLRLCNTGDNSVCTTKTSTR", "assay": "Determination of inhibition constants for PK", "assay_type": "biochemical", "set-up": "purchased Enzyme Research Lab. / Enzyme Research Laboratories", "conditions": "25° C., substrate S2302, pH 8.0; read-out: PK [Ki]", "summary_of_the_method": "as §1"}, "plasmin [5]": {"molecular_target": "T1, plasmin", "assay": "Inhibition constants against purified human serine proteases: plasmin", "assay_type": "biochemical", "set-up": "purchased Calbiochem", "conditions": "50 mM Tris-HCl pH 8.0, 154 mM NaCl, Chromozyme PL", "description": "as §2, §3"}, "Thrombin": {"molecular_target": "Thrombin (Homo sapiens, UniProt P00734)", "assay": "Determination of inhibition constants for thrombin", "assay_type": "biochemical", "summary_of_the_method": "as §1"}, "[6]": {"conditions": "cited from earlier work"}}, "note": "Where “and” joins values, the source holds several entries; their conditions need not be identical. Equal values may be shown once. Read-outs that look alike come from different tables or passages of the source.", "data": [{"molecule": "N=C(N)c1ccc(CNC(=O)[C@H](Cc2cccc(CN)c2)NC(=O)[C@@H](CCCc2ccccc2)NS(=O)(=O)Cc2cccc(C(=O)O)c2)cc1", "note": "[compound 3, 3-HOOC-Bzls-d-Ppg-Phe(3-Ame)-4-Amba×2 acetate]", "values": [{"measurement": "half-life", "setting": "[1]", "result": 20, "unit": "min"}, {"measurement": "half-life", "setting": "[2]", "result": 20, "unit": "min"}, {"measurement": "Ki", "setting": "plasmin [3]", "result": "< 10", "unit": "nM"}, {"measurement": "Ki", "setting": "Xa", "result": "< 100", "unit": "nM"}, {"measurement": "Ki", "setting": "[4]", "result": "5200 ± 400", "unit": "nM"}, {"measurement": "Ki", "setting": "plasma kallikrein", "result": "< 10", "unit": "nM"}, {"measurement": "Ki", "setting": "plasmin [5]", "result": "2.3 nM and 2.2 nM"}, {"measurement": "Ki", "setting": "Thrombin", "result": "> 1000", "unit": "nM"}]}, {"molecule": "aprotinin", "values": [{"measurement": "risk of myocardial infarction and apoplectic stroke", "setting": "[6]; by comparison with the control groups", "result": "increased"}, {"measurement": "number of cases of kidney damage, making dialysis necessary", "setting": "[6]; comparison with ε-aminocaproic acid or tranexamic acid (Mangano et al., 2006)", "result": "doubling"}, {"measurement": "risk of an anaphylactic shock", "setting": "[6]; first administration", "result": "< 0.1", "unit": "%"}, {"measurement": "risk of an anaphylactic shock", "setting": "[6]; repeated administration within 200 days", "result": "4-5%"}]}]}
